Experimental data reported in patent US10953003B2, “Methods for treating cancer” (X4 Pharmaceuticals, Inc., priority 2015, dated 2021).

Experiments:
[1] = Phase 1 and 2a trials; cited from earlier work
786 cells = 786 cells treated in vitro for 24 hours, normoxic and hypoxic (1% O2); format: cell-based, human; details: 786 hypoxic cells in vitro
Excerpt: FIG. 14B illustrates mir-30a and mir-30c microRNA and (FIG. 14C) total HIF-2α, RNA expression from the same cells from FIG. 14A.

A375 cells = A375 cells with or without constitutively active Stat3 construct, treated 24 h; format: cell-based; details: A375 cells +/- constitutively active Stat3, 24 h, normoxic or hypoxic; FIG. 15
Excerpt: FIG. 15A illustrates Western blot results from lysates of A375 cells or A375 cells transfected with a constitutively active Stat3 construct. […] Without wishing to be bound by theory, it is believed that Stat3 is important in promoting CXCL-12 mediated invasion of tumors.

A498 RCC xenografts = experiment: Murine A498 RCC xenograft model; format: in vivo, mice; details: for MDSC infiltration of tumors: CD11b+ GR-1+ cells, FIGS. 5B, 5D; for effects on tumor growth: nude/beige mice, tumors measured on day 7, FIG. 1B
Description: (§1) With each of the human cell lines, 1×10^7 tumor cells were implanted subcutaneously in the flanks of 36 nude/beige mice and tumors allowed to grow to roughly 7 mm in diameter. […] Therefore, on day 7, the mice were sacrificed and the tumors were measured and immediately excised and divided into three parts. One part of each tumor was paraffin-embedded for dual color immunofluorescence. Another part was mechanically disaggregated and treated with collagenase/DNAse to generate a single cell suspension for flow cytometry. The third part was frozen for future pharmacokinetic analysis. Microscope slides were made from the paraffin-embedded tumor tissue, which were stained with antibodies against CD11b, Gr-1, and FAP. The number of infiltrating CD11b+/Gr-1+ MDSC and FAP+ fibroblasts present in the tumor tissue was then determined by immunofluorescence (IF) as previously described (1).
(§2) The disaggregated tumor specimens were analyzed for CD11b+/Gr-1+ MDSC and FAP+ fibroblasts by flow cytometry. The fraction of both populations expressing CXCR4 were also determined. At the time the mice were sacrificed, the spleens were removed and cut in half. One part was disaggregated into single cell suspensions and analyzed by flow cytometry as above for MDSC. The second half was frozen for future analyses, such as PK analysis. Finally, a bone marrow (BM) sample was generated by extruding marrow from an excised femur with a syringe filled with saline and analyzed by flow cytometry for MDSC.

786-0 RCC xenografts = experiment: Murine 786-0 RCC xenograft model; format: in vivo, mice; details: for effects on tumor growth / MDSC infiltration of tumors: 786-0 xenografts; for effects on tumor growth: nude/beige mice, tumors measured on day 7, FIG. 1A; for MDSC infiltration of tumors: CD11b+ GR-1+ cells, FIGS. 5A, 5C
Description: as §1, §2

[2] = oral axitinib; see current product label; cited from earlier work
[3] = cited from earlier work
[4] = over the range pH 1.1 to pH 7.8; cited from earlier work
[5] = test system: renal cell carcinoma (RCC) xenografts; details: cited from earlier work

NCCCCN(Cc1nc2ccccc2[nH]1)[C@H]1CCCc2cccnc21 [X4P-001]
pharmacodynamic activity: circulating white blood cells (WBCs) [1]: dose- and concentration-related changes | volume of distribution (VL) [1]: high | mir-30a and mir-30c microRNA (786 cells; FIG. 14B): mir-30a and mir-30c induction | HIF-2α (786 cells; FIGS. 14A, 14C): HIF-2α reduction | suppression of HIF-2α and induction of mir-30a and 30c (A375 cells): dependent on Stat3 expression | MDSC infiltration of tumors (A498 RCC xenografts): significantly less MDSC infiltration | effects on tumor growth (A498 RCC xenografts): modest | effects on tumor growth (786-0 RCC xenografts): modest | MDSC infiltration of tumors (786-0 RCC xenografts): significantly less MDSC infiltration | level of HIF-2α (786-0 RCC xenografts; 786 xenograft tumors, Western blots, 8 days of treatment, FIGS. 11, 13): reduction in the level of HIF-2α relative to that caused by axitinib treatment

CNC(=O)c1ccccc1Sc1ccc2c(/C=C/c3ccccn3)n[nH]c2c1 [axitinib, N-methyl-2-[3((E)-2-pyridin-2-yl-vinyl)-1H-indazol-6-ylsulfanyl]-benzamide]
absorption, effect of food [2]: not altered by food | pKa [3]: 4.8 | solubility in aqueous media [4]: > 0.2 µg/mL | MDSC infiltration of tumors (A498 RCC xenografts): extensive MDSC infiltration | effects on tumor growth (A498 RCC xenografts): no | micro-RNAs mir-30a and mir-30c expression (786-0 RCC xenografts; 786-0 xenograft tumor, after 8 days of treatment, FIG. 12): suppressed | effects on tumor growth (786-0 RCC xenografts): no | MDSC infiltration of tumors (786-0 RCC xenografts): extensive MDSC infiltration

MI-319
development of sunitinib resistance ([5]; MI-319 given concurrently with sunitinib): prevented | infiltration of RCC xenografts with CD11b+/Gr-1+ MDSC ([5]; earlier work by some of the inventors, MI-319 given concurrently with sunitinib): prevented | HIF-2 expression ([5]; earlier work of the inventors): suppresses
